The text below walks through data of patent US10669238B2, “Irreversible bruton's tyrosine kinase inhibitor” (HEFEI INSTITUTES OF PHYSICAL SCIENCE, CHINESE ACADEMY OF …, priority 2016, dated 2020).

In assay [1] the test system is diffuse histiocytic lymphoma cells SU-DHL-2. As to the kind of experiment: Cell proliferation (Cell Titer-Glo), SU-DHL-2. The class given is cell-based. The conditions noted are these: Homo sapiens; SU-DHL-2, 72 hours; read-out: Effects on cell proliferation (GI50). The method, then:
(§1) The selectivity of Compound 1 in inhibiting the proliferation of cancer cells was further evaluated by testing the effect of Btk inhibitors on the growth of cancer cells. […]
(§2) In this example different concentrations (0.000508 μM, 0.00152 μM, 0.00457 μM, 0.0137 μM, 0.0411 μM, 0.123 μM, 0.370 μM, 1.11 μM, 3.33 μM, 10 μM) of Compound 1 and Compound 6 were respectively added into the above cells which were then cultured for 72 hours. The number of viable cells was determined via quantitative determination of ATP in living cells by using Cell Titer-Glo® (Promega, the USA) Chemical Luminescent Cell Viability Assay kit.

Assay [2] concerns acute myeloid leukemia cell lines MV4-11. The assay is described as follows: Cell proliferation (Cell Titer-Glo), MV4-11. The assay is classed as cell-based. The conditions noted are these: Homo sapiens; MV4-11, 72 hours; read-out: Effects on cell proliferation (GI50). The procedure:
as §1, §2

A further assay concerns the target T1, BTK C481S (Homo sapiens, UniProt Q06187, C481S).
T1 construct: made in house; host or cells: SF9 insect cells
As to the kind of experiment: Btk cell-free kinase assay, BTK C481S mutant protein. The assay is classed as biochemical. Conditions: compound 30 mins at room temperature, then 100 μM ATP 20 min at 37° C. The text has this: (§3) The BTK wild-type plasmid and the BTK mutant plasmid (C481S) were respectively transfected into SF9 cells (purchased from invitrogen), and after three generations of virus amplification, the P3-generation virus was used to transfect SF9 cells which were collected after 72-hour culture to obtain protein BTK WT and protein BTK C481S, which were then purified.

The target in a further assay is BTK protein kinase (Homo sapiens, UniProt Q06187). As to the kind of experiment: In vitro enzymatic activity against BTK (ADP-Glo). The class given is biochemical. Conditions: for IC50: compound with BTK 4 hours at room temperature, ATP 10 μM, 37° C. 1 hour, values in nM. The procedure, abridged:
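BTK (1.5 ng/μL enzyme solution) was preincubated with compound (final 10 μM to 0.003 μM) for 4 h at room temperature. Reaction ran 1 h at 37 °C with 10 μM ATP and 0.2 μg/μL poly(Glu,Tyr) 4:1 (final). ADP formed was measured by ADP-Glo luminescence, and IC50 was obtained by curve plotting.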

The test system of assay [3] is diffuse large B-cell lymphoma cell lines TMD8. The assay is described as follows: Cell proliferation (Cell Titer-Glo), TMD8. The class given is cell-based. Conditions: Homo sapiens, TMD8, 72 h, read-out: Effects on cell proliferation (GI50).
Source text: The following cells were adopted in the example: acute myelocytic leukemia cell strains (acute myelocytic leukemia, AML) HL-60, B-lymphoma cell Ramos, colon cancer cells HCT116, leukemic cells K562, B-cell lymphoma cells U2932, diffuse large B-cell lymphoma cell line OCI-LY10, diffuse histiocytic lymphoma cells SU-DHL-2, diffuse large B-cell lymphoma cell lines TMD8, leukemia cell OCI-AML-3, acute promyelocytic leukemia cell line NB-4 (Lu+), MDS-RAEB (myelodysplastic syndrome—excessive blasts) cell lines SKM-1, human leukocyte leukemia cells HEL, acute myeloid leukemia cell lines (acute myelocytic leukemia, AML) U937, acute myeloid leukemia cell lines (acute myelocytic leukemia, AML) MOLM14, acute myeloid leukemia cell lines (acute myelocytic leukemia, AML) MOLM13, acute myeloid leukemia cell lines (acute myelocytic leukemia, AML) M-07e, acute myeloid leukemia cell lines (acute myelocytic leukemia, AML) MV4-11, acute myeloid leukemia cell lines (acute myelocytic leukemia, AML) MOLM16, diffuse large B-cell lymphoma cell lines Pfeiffer, multiple myeloma cell lines (multiple myeloma) RPM18226, bone marrow plasma cell tumor cells AMO-1, mouse pro-B cells BaF3, all purchased from ATCC.
A further assay has as its system B-lymphoma cell Ramos. The assay is described as follows: Cell proliferation (Cell Titer-Glo), Ramos. The class given is cell-based. The conditions noted are these: Homo sapiens, Romas, 72 hours, read-out: Effects on cell proliferation (GI50). The procedure:
as §1, §2

A further assay concerns the target BTK WT (Homo sapiens, UniProt Q06187). As to the kind of experiment: Btk cell-free kinase assay, BTK WT protein. The class given is biochemical. The conditions noted are these: compound 30 mins at room temperature, then 100 μM ATP 20 min at 37° C.
Source text: as §3

Assay [4] has as its system diffuse large B-cell lymphoma cell line OCI-LY10. As to the kind of experiment: Cell proliferation (Cell Titer-Glo), OCI-LY10. The conditions noted are these: Homo sapiens; OCI-LY10, 72 hours; read-out: Effects on cell proliferation (GI50). The assay is classed as cell-based. The method, then: as §1, §2
Assay [5] deals with T2, TEL-EGFR-BaF3 (stably expressing TEL-EGFR activated kinase) (Homo sapiens, UniProt P00533).
T2 construct: expressed in transfected cells; host or cells: mouse BaF3 cells, retroviral MSCV-Puro; the other entry of the earlier key: ETV6 (P41212, Transcription factor ETV6)
As to the kind of experiment: Cell proliferation (Cell Titer-Glo), BaF3-tel-EGFR. Conditions: BaF3-tel-EGFR (mouse BaF3 cells), 72 hours; read-out: Effects on cell proliferation (GI50). The class given is cell-based. The method, then: as §1, §2

For the next assay, the system named is leukemic cells K562. The assay is described as follows: Cell proliferation (Cell Titer-Glo), K562. The conditions noted are these: Homo sapiens; K562, 72 hours; read-out: Effects on cell proliferation (GI50). The class given is cell-based. The method, then:
as §1, §2

In assay [6] the test system is acute myeloid leukemia cell lines MOLM13. The assay is described as follows: Cell proliferation (Cell Titer-Glo), MOLM13. The assay is classed as cell-based. The conditions noted are these: Homo sapiens, MOLM-13; MOLM13, 72 hours; read-out: Effects on cell proliferation (GI50). The method, then:
as §1, §2

Structures are written as SMILES.

Sequence of BTK protein kinase (Q06187 whole entry): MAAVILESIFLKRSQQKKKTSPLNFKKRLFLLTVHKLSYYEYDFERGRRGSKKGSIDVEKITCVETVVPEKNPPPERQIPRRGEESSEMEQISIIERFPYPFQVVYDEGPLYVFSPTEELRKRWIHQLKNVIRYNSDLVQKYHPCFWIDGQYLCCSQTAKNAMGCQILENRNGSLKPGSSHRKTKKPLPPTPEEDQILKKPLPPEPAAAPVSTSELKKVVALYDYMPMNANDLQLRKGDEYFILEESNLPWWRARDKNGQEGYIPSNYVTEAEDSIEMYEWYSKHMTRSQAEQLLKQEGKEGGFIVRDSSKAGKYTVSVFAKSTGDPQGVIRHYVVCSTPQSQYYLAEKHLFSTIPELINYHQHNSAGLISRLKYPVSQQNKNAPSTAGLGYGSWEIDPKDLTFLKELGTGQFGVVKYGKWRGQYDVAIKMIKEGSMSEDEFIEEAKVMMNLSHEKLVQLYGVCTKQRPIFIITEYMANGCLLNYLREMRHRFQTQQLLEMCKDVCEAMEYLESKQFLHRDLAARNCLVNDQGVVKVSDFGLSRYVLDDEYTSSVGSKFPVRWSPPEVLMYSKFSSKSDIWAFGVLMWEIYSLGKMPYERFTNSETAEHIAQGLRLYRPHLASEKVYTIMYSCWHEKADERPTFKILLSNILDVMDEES
T2 sequence (P00533 712-979 limits assumed): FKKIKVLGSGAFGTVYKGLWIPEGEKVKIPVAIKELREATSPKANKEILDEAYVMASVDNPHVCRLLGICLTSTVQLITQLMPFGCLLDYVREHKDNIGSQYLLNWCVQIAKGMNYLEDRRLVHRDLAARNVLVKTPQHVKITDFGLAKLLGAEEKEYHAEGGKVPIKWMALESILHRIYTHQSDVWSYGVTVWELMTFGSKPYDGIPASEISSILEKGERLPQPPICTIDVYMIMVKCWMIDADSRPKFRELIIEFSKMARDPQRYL
Sequence of BTK WT (Q06187 whole entry): as the sequence (Q06187 whole entry) above
T1 sequence (Q06187 whole entry C481S): as the sequence (Q06187 whole entry) above, with C481S counted along it

On to `CCC(=O)Nc1cc(Nc2cc(-c3cccc(NC(=O)c4ccc(C(C)(C)C)cc4)c3C)cn(C)c2=O)ccc1C(=O)N1CCOCC1` [Compound 6, N-(3-(5-((3-propanamide-4-(morpholin-4-carbonyl)phenyl)amino)-1-methyl-6-oxo-1,6-dihydropyridin-3-yl)-2-methylphenyl)-4-(tert-butyl)benzamide], for which the GI50 is > 10 µM in assay [1]; 4.8 µM in assay [2]; 0.75 µM in [3]; 4.6 µM with B-lymphoma cell Ramos; 3 to 10 µM in assay [4]; 7.6 µM in [5]. In addition, the results for the GI50 (in the assay with leukemic cells K562; in [6]) were > 10 µM and 4 µM, respectively. The “inhibitory effects against BTK C481S” value on BTK C481S is recorded as “no inhibitory effects”. At BTK protein kinase (ADP-Glo assay, in words), the “inhibitory effects on BTK protein” value was “relatively strong inhibitory effects”. Moreover, at BTK protein kinase, the IC50 was determined as 207 nM. Also, the “inhibitory effects against BTK WT” value on BTK WT is “no inhibitory effects”.

On to `C=CC(=O)Nc1cc(Nc2cc(-c3cccc(NC(=O)c4ccc(C(C)(C)C)cc4)c3C)cn(C)c2=O)ccc1C(=O)N1CCOCC1` [Compound 1, N-(3-(5-((3-acrylamide-4-(morpholin-4-carbonyl)phenyl)amino)-1-methyl-6-oxo-1,6-dihydropyridin-3-yl)-2-methylphenyl)-4-(tert-butyl)benzamide], for which the GI50 in assay [1] is 3 µM; in assay [2], 2.1 µM; in assay [3], 0.001 µM; in the assay with B-lymphoma cell Ramos it was 3.5 µM; in assay [4], 3.4 µM; in [5] it was 5.3 µM. The figures for the GI50 (with leukemic cells K562; in assay [6]) were 4.2 µM and 2.2 µM, respectively. The values for the concentration for a half-maximal effect (EC50) on BTK C481S (read-out: EC50 against BTK C481S) and at BTK WT (read-out: EC50 against BTK WT protein) were 0.185 µM and 0.0047 µM, respectively. The same compound had an IC50 against BTK protein kinase of 7.09 nM.
